Assay results as given in paper PMC12736194, “1-Azinyl-1′-Alkenylferrocenes with Anticholinesterase, Antioxidant, and Antiaggregating Activities as Multifunctional Agents for Potential Treatment of Alzheimer’s Disease” (Pharmaceuticals, 2025).

Legend:
[1] = ABTS radical cation scavenging activity assay;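 as to Exp. ABTS, TEAC: same experimental ABTS TEAC values reprinted in Table 4 beside calculated BDE and IP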; details: for Exp. ABTS, TEAC: Ethanol, Table 4; for IC50: ABTS^•+ 100 μM; for IC50 / ABTS^•+-Scavenging Activity, TEAC: ethanol, 1 h; for ABTS^•+-Scavenging Activity, TEAC: Trolox equivalent antioxidant capacity, mean ± SEM, n = 3
[2] = Ferric reducing antioxidant power (FRAP) assay;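 as to Exp. FRAP, TE: same experimental FRAP TE values reprinted in Table 4 beside calculated BDE and IP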; details: for Exp. FRAP, TE: Water, Table 4; for Ferric Reducing Antioxidant Power, TE: Trolox equivalents, acetate buffer pH 3.6, 1 h, 37 °C
[3] = molecular target: T1, human (Homo sapiens) erythrocyte AChE (HsAChE) (Homo sapiens, UniProt P22303); assay: Inhibition of HsAChE (spectrophotometric, ATCh iodide substrate); format: biochemical; details: mean ± SEM, n = 3; for Inhibition of HsAChE, % inhibition at 20 μM: compound 20 μM, n.a. = not active
T1 construct: human (Homo sapiens) erythrocyte AChE (HsAChE); purchased Sigma-Aldrich; host or cells: human erythrocytes
T1 sequence (P22303 32-617 isoform P22303-2 limits assumed): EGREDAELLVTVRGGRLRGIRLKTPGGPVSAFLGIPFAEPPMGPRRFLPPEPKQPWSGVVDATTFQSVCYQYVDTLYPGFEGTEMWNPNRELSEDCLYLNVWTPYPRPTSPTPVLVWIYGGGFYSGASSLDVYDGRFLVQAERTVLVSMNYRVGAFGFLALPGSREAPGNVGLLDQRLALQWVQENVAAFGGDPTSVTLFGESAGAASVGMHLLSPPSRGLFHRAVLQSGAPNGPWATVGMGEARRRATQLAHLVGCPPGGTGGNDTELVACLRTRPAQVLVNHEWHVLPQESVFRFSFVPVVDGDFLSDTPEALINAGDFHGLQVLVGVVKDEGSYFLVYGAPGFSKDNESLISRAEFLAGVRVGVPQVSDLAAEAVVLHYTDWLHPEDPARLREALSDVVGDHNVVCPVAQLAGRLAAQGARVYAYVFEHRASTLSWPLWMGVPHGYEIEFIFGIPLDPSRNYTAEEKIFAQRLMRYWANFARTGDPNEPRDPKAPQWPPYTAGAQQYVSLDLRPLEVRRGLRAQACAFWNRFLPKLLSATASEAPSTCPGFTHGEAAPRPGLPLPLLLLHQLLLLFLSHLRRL
Method: (§1) In these experiments, human (Homo sapiens) erythrocyte AChE (HsAChE), equine (Equus caballus) serum BChE (EcBChE), and porcine (Sus scrofa) liver CES (SsCES) were used because of their ready availability, relatively low cost, and high sequence homology of EcBChE and SsCES to the corresponding human enzymes.
(§2) Enzymes, substrates, and reference compounds were sourced from Sigma-Aldrich (St. Louis, MO, USA). Enzyme activity was measured spectrophotometrically according to [91] using ATCh iodide, BTCh iodide, and 4-NPA as substrates for HsAChE, EcBChE, and SsCES, respectively. Experimental conditions included a K/Na-phosphate buffer (100 mM), at 25 °C, with pH 7.5 for AChE and BChE assays, and pH 8.0 for CES assays. Measurements were conducted on a BioRad Benchmark Plus microplate spectrophotometer (Hercules, CA, USA). Test compounds were dissolved in DMSO with a final solvent concentration of 2% (v/v) in the incubation mixture.

[4] = molecular target: T2, equine (Equus caballus) serum BChE (EcBChE) (Equus caballus, UniProt P81908); assay: Inhibition of EcBChE (spectrophotometric, BTCh iodide substrate); format: biochemical; details: mean ± SEM, n = 3; for Inhibition of EcBChE, % inhibition at 20 μM: compound 20 μM, n.a. = not active; for IC50: K/Na-phosphate buffer pH 7.5, 25 °C
T2 construct: equine (Equus caballus) serum BChE (EcBChE); purchased Sigma-Aldrich; host or cells: horse serum
T2 sequence (P81908 whole entry): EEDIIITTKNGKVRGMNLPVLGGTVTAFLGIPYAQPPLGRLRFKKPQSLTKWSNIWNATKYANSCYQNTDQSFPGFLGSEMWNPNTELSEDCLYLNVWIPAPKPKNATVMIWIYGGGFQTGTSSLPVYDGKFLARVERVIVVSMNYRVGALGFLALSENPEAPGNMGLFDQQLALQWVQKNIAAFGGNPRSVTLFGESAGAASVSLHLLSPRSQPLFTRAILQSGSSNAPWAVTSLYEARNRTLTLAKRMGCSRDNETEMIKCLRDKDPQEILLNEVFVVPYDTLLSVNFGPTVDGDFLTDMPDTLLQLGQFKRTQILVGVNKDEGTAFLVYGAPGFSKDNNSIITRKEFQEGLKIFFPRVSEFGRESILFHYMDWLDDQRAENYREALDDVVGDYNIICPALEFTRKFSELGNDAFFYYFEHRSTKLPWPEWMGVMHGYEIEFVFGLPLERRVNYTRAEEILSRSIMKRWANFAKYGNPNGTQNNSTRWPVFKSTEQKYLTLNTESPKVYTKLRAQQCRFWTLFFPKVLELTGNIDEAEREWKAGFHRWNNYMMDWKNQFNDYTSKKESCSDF
Method: as §1, §2

[5] = molecular target: T3, peripheral anionic site (PAS) of Electrophorus electricus AChE (EeAChE) (Electrophorus electricus, UniProt O42275); assay: Propidium displacement from the EeAChE PAS (fluorescence); format: binding; details: compound concentration 20 µM; EeAChE 7 μM, propidium iodide 8 μM, Tris-HCl pH 8.0; n.a. = not active
T3 construct: purchased Sigma-Aldrich type VI-S
T3 sequence (O42275 24-633): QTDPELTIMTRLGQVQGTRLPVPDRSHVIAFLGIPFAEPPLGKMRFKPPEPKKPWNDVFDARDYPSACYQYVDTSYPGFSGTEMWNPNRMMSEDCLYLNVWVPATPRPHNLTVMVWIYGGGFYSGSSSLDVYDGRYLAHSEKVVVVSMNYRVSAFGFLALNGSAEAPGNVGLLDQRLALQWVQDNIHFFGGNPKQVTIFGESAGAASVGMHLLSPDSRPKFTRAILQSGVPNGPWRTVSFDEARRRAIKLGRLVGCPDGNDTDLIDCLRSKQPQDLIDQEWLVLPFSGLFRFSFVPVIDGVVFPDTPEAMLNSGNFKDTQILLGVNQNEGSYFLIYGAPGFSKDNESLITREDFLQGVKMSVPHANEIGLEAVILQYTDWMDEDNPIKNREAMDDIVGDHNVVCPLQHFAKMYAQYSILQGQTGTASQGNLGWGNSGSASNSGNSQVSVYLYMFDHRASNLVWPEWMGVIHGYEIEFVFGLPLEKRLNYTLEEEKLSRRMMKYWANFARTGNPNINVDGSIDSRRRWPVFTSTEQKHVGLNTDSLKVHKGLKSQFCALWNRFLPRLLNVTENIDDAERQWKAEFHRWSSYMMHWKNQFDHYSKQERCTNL
Method: A fluorescence-based assay assessed the ability of test compounds to competitively displace propidium iodide from AChE’s PAS [65, 93]. […] EeAChE (7 μM) was incubated with 20 μM test compounds in Tris-HCl buffer (pH 8.0) for 15 min, followed by addition of propidium iodide (8 μM) as described in detail in [95]. Fluorescence readings (530 nm excitation, 600 nm emission) were obtained using a FLUOStar Optima microplate reader (LabTech, Ortenberg, Germany). Displacement (%) was calculated.

[6] = molecular target: T4, human β-amyloid (1–42) (HsAβ42) (Homo sapiens, UniProt P05067); assay: Inhibition of HsAβ42 self-aggregation (thioflavin T fluorescence); format: biochemical; details: HsAβ42 50 µM, compound 100 µM, 24 h, 37 °C; n.a. = not active
T4 construct: purchased AnaSpec Inc
T4 sequence (P05067 672-713 limits assumed): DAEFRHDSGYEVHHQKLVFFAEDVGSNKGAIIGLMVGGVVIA
Method: The potential of compounds from all three groups (1a-e, 5a-e, 7a-d) to inhibit HsAβ42 self-aggregation was evaluated using a Thioflavin T (ThT) fluorescence assay.
Inhibition of HsAβ42 self-aggregation by test compounds was studied using the thioflavin T (ThT) fluorescence method with minor modifications as described in detail in [79]. Lyophilized HFIP-pretreated HsAβ42 (AnaSpec Inc., Fremont, CA, USA, 0.5 mg) was dissolved in DMSO to obtain a stable 500 μM solution. The samples of 50 μM HsAβ42 in 215 mM Na-phosphate buffer pH 8.0 were incubated for 24 h at 37 °C in the absence or presence of 100 μM test compounds. Myricetin in the same concentration was used as a reference. After incubation, 5 μM ThT in 50 mM glycine-NaOH buffer pH 8.5 was added, and the fluorescence was measured at 440 nm (exc.) and 485 nm (emis.) with a FLUOStar Optima microplate reader. Blanks consisted of 215 mM Na-phosphate buffer, pH 8.0, 20% (v/v) DMSO or test compounds, respectively. The inhibition (%) of HsAβ42 self-aggregation by the test compounds was calculated.

[7] = tested on: porcine (Sus scrofa) liver CES (SsCES); assay: Inhibition of SsCES (spectrophotometric, 4-NPA substrate); format: biochemical; details: mean ± SEM, n = 3; for Inhibition of SsCES, % inhibition at 20 μM: compound 20 μM, n.a. = not active
From the text: as §1
Although the dominant carboxylesterase in porcine liver is CES1 [64], the preparation sourced from Sigma-Aldrich is not a purified or recombinant CES1. Therefore, we have designated the preparation used in our experimental studies as SsCES. However, in computational molecular docking studies, it is necessary to choose a single defined protein as the docking target. Thus, the logical choice for our computational studies of CES was the most abundant and best characterized isoform found in porcine liver, which is SsCES1.
as §2

Compound	Exp. ABTS, TEAC [1]	Exp. FRAP, TE [2]	Inhibition of HsAChE, % inhibition at 20 μM [3]	Inhibition of EcBChE, % inhibition at 20 μM [4]	Propidium Displacement, (%) [5]	HsAβ42 self-Aggregation Inhibition, (%) [6]	IC50 [1]	ABTS^•+-Scavenging Activity, TEAC [1]	Ferric Reducing Antioxidant Power, TE [2]	Inhibition of SsCES, % inhibition at 20 μM [7]	IC50 ([7]; K/Na-phosphate buffer pH 8.0, 25 °C)	IC50 [4]	IC50 ([3]; K/Na-phosphate buffer pH 7.5, 25 °C)
C=C(C)[c-]1cccc1.[Fe+2].c1ccc(-[c-]2cccc2)[nH+]c1 [5ap]	2.20 ± 0.10	2.85 ± 1.3											
C=C(C)[c-]1cccc1.[Fe+2].c1ccc(-[c-]2cccc2)nc1 [5a]	2.20 ± 0.10		4.4 ± 1.1%	18.3 ± 1.6%	zero	62.4 ± 4.9%	9.4 ± 0.5 µM	2.2 ± 0.1	2.85 ± 0.13				
[Fe+2].c1cc[cH-]c1.c1ccc(-[c-]2cccc2)nc1 [1a]	2.10 ± 0.10			20.3 ± 1.4%	zero	43.4 ± 3.4%	10.8 ± 0.6 µM	2.1 ± 0.1	2.05 ± 0.02	17.5 ± 1.3%			
C=C(C)[c-]1cccc1.[Fe+2].c1ccc2c(-[c-]3cccc3)c3ccccc3[nH+]c2c1 [5cp]	1.35 ± 0.06	2.45 ± 0.14											
C=C(C)[c-]1cccc1.[Fe+2].c1cc[c-](-c2ccnnc2)c1 [5e, 1-Isopropenyl-1′-(Pyridazin-4-yl)Ferrocene]					zero	48.6 ± 3.5%	9.3 ± 0.4 µM	2.5 ± 0.2	2.65 ± 0.02				
[Fe+2].c1cc[cH-]c1.c1ccc2c(-[c-]3cccc3)c3ccccc3[nH+]c2c1 [1cp]	1.50 ± 0.08	1.59 ± 0.17											
C=C[c-]1cccc1.[Fe+2].c1ccc2[nH+]c(-[c-]3cccc3)ccc2c1 [7bp]		2.21 ± 0.02											
[Fe+2].c1cc[cH-]c1.c1ccc2c(-[c-]3cccc3)c3ccccc3nc2c1 [1c]			6.5 ± 0.8%	21.2 ± 1.6%	11.2 ± 0.9%	71.0 ± 4.9%	14.6 ± 0.3 µM	1.50 ± 0.08	1.59 ± 0.17				
C=C(C)[c-]1cccc1.[Fe+2].c1cc[cH-]c1 [compound 8, isopropenylferrocene, reference compound]	0.73 ± 0.04	1.10 ± 0.10		3.9 ± 0.8%	zero		26.3 ± 1.5 µM	0.73 ± 0.04	1.1 ± 0.1	2.9 ± 0.6%			
C=C[c-]1cccc1.[Fe+2].c1ccc2c(-[c-]3cccc3)c3ccccc3[nH+]c2c1 [7cp]		1.36 ± 0.01											
C=C(C)[c-]1cccc1.[Fe+2].c1ccc2[nH+]c(-[c-]3cccc3)ccc2c1 [5bp]	4.30 ± 0.20	3.13 ± 1.7											
[Fe+2].c1cc[cH-]c1.c1ccc(-[c-]2cccc2)[nH+]c1 [1ap]	2.10 ± 0.10	2.05 ± 0.02											
C=C[c-]1cccc1.[Fe+2].c1ccc2c(-[c-]3cccc3)c3ccccc3nc2c1 [7c, 1-(Acridin-9-yl)-1′-Vinylferrocene]			22.8 ± 1.8%	7.6 ± 1.1%	10.4 ± 0.8%	86.9 ± 6.1%	6.9 ± 0.3 µM	2.9 ± 0.1	1.36 ± 0.01	14.1 ± 1.5%			
Cc1c(C)c2c(c(C)c1O)CCC(C)(C(=O)O)O2 (stereo not shown) [Trolox, reference compound]							20.1 ± 1.2 µM	1.0	1.0				
C=C[c-]1cccc1.[Fe+2].c1ccc(-[c-]2cccc2)[nH+]c1 [7ap]	2.60 ± 0.03	2.13 ± 0.03											
[Fe+2].c1cc[cH-]c1.c1cc[cH-]c1 [Fc, ferrocene]	0.57 ± 0.03	0.79 ± 0.02	9.6 ± 1.4%	6.7 ± 1.0%	zero	3.5 ± 0.4%	32.9 ± 1.9 µM	0.57 ± 0.03	0.79 ± 0.02	4.2 ± 0.7%			
O=[N+]([O-])c1ccc(OP(=O)(O)Oc2ccc([N+](=O)[O-])cc2)cc1 [BNPP, bis-4-nitrophenyl phosphate, reference compound]										99.1 ± 0.9%	1.8 µM		
C=C[c-]1cccc1.[Fe+2].c1cc[cH-]c1 [compound 9, vinylferrocene, reference compound]	1.00 ± 0.04	1.04 ± 0.02	4.2 ± 0.9%		zero	44.9 ± 3.1%	19.4 ± 0.1 µM	1.00 ± 0.04	1.04 ± 0.02	23.4 ± 2.1%			
[Fe+2].c1cc[cH-]c1.c1ccc2[nH+]c(-[c-]3cccc3)ccc2c1 [1bp]	4.20 ± 0.20	2.21 ± 0.01											
[Fe+2].c1cc[c-](-c2ccnnc2)c1.c1cc[cH-]c1 [1e, 1-(pyridazin-4-yl)ferrocene]				13.1 ± 1.4%	zero	53.3 ± 3.7%	9.2 ± 0.5 µM	2.3 ± 0.1	1.72 ± 0.02				
C=C(C)[c-]1cccc1.[Fe+2].c1ccc2c(-[c-]3cccc3)c3ccccc3nc2c1 [5c]			36.7 ± 3.3%		10.5 ± 0.9%	90.1 ± 7.2%	15.8 ± 0.8 µM	1.35 ± 0.06	2.45 ± 0.14			96.7 ± 6.6 µM	
C=C[c-]1cccc1.[Fe+2].c1ccc(-[c-]2cccc2)nc1 [7a, 1-(Pyridin-2-yl)-1′-Vinylferrocene]	2.60 ± 0.03				9.6 ± 0.7%	84.6 ± 7.5%	8.4 ± 0.3 µM	2.60 ± 0.08	2.13 ± 0.03	18.5 ± 1.6%		20.1 ± 1.6 µM	16.5 ± 1.3 µM
